Consider 3 molecules from US20150219624A1, “METHODS FOR IDENTIFYING ANTI-CANCER COMPOUNDS” (MEMORIAL SLOAN KETTERING CANCER CENTER, priority 2013, published 2015).

Experiment [1] has as its system KOPTK1 cells. Description: Metabolic labeling of nascent protein with L-azidohomoalanine (AHA). Type of experiment: cell-based, human. The note with it: 100 nM; p vs. vehicle 2×10−4. The procedure:
(Non-radioactive) Metabolic labeling of nascent protein. KOPTK1 cells were labeled for nascent protein synthesis using Click-iTR AHA (L-azidohomoalanine) metabolic labeling reagent obtained from Invitrogen (cat no. C10102) as per manufacturer's instructions. Briefly, following silvestrol, Cycloheximide or DMSO treated cells were incubated in methionine free medium for 30 min prior to AHA labeling for 1 hr. Cells were fixed with 4% paraformaldehyde in PBS for 15 min, permeablized with 0.25% Triton X-100 in PBS for 15 min followed by one wash with 3% BSA. Cells were then stained using Alexa Fluor 488 Alkyne (Invitrogen cat no. A10267) with Click-iT Cell reaction Buffer Kit (Invitrogen cat no. C10269). Changes in mean fluorescence intensity as a measure of newly synthesized protein was detected by Flow cytometry analysis.
The number of ribosomes occupying a given transcript is given as gene specific RF reads per one million total reads (RPM).
FIG. 10 depicts ribosome profiling quality control data and effects on translation. A and B) Read counts by length of mapped sequence before and after filtering rRNA, linker reads, non-coding RNAs, short mapped sequences (“noisy” reads; see text and method for details). C and D) Read length frequency histograms and mapping analysis of ribosome footprint data after quality control filtering for vehicle treated cells (C) or silvestrol treated cells (D). […]

For experiment [2], the system named is cap-dependent translation. Description: Dual-luciferase reporter assay (capped vs IRES-driven luciferase). The experiment is classed as cell-based. The note with it: renilla and firefly luciferase either capped or under control of an IRES element. The procedure:
Luciferase assays. Four tandem repeats of the (CGG)4 12-mer motif (GQs) or random sequence matched for length and GC content (random) were cloned into the 5′UTR of Renilla luciferase plasmid pGL4.73. Empty firefly luciferase plasmid pGL4.13 or HCV-IRES firefly were used as internal controls. Luciferase assays were performed using Dual-Luciferase Reporter Assay System (Promega E1960) following the manufacturer's instructions. GQs sequence: […]

SMILES strings stand for the structures.

With `C[C@@H]1C[C@@H]([C@H](O)CC2CC(=O)NC(=O)C2)C(=O)[C@@H](C)C1` [cycloheximide, Cycloheximide], the “max. reduction of nascent protein synthesis (AHA labeling)” value in experiment [1] turned out to be 80%.

As to `C[C@H]1C[C@@]2(O[C@H]3C[C@H]4[C@@H]5CC[C@H]6C[C@H](O)CC[C@]6(C)[C@H]5[C@@H](O)C[C@]4(C)[C@H]3[C@@]2(C)O)OC1(C)C` [hippuristanol], the “block of cap-dependent versus IRES-dependent translation” value in experiment [2] is reported as “preferentially block cap-dependent over IRES-dependent translation”.

Take `CC(/C=C/C(C)=C/[C@@H]1Cc2nc(cs2)[C@@H](C)C[C@@H](N)CC(=O)O[C@@H](C)C/C(C)=C/C=C\C(=O)O1)=C\CN(C)C` [pateamine A, (3S,6Z,8E,11S,15R,17S)-15-amino-3-[(1E,3E,5E)-7-(dimethylamino)-2,5-dimethylhepta-1,3,5-trienyl]-9,11,17-trimethyl-4,12-dioxa-20-thia-21-azabicyclo[16.2.1]henicosa-1(21),6,8,18-tetraene-5,13-dione]: in experiment [2], the “block of cap-dependent versus IRES-dependent translation” value is recorded as “preferentially block cap-dependent over IRES-dependent translation”.
